From patent US20250134889A1, “TARGETING IRE1 KINASE AND FMRP FOR PROPHYLAXIS, MANAGEMENT AND TREATMENT OF ATHEROSCLEROSIS” (CEDARS-SINAI MEDICAL CENTER, priority 2022, published 2025)

What was measured:
[1] = test system: mouse and human macrophages; conditions: cited from earlier work
atherosclerotic plaque = conditions: mice; cited from earlier work
[2] = test system: RAW 264.7 mouse macrophages; assay: ER stressor treatment of RAW 264.7 macrophages (western blot, qRT-PCR); format: cell-based; conditions: oxLDL 50 μg/ml or TG 300 nM, 6 hours
Experimental: FIGS. 1A-1K depict FMRP is a new inositol-requiring enzyme-1 (IRE1) kinase substrate. A representative blot is shown from at least n=3 independent experiments. Data are mean±SEM. Unpaired 1-test with Welch's correction or paired 1-test. * P≤0.05, ** P≤0.01, *** P≤0.001. • 1A. STING analysis of published IRE1 interactome proteins in relation to FMRP (Acosta-Alvear et al., 2018). • 1B. HEK293T cells were co-transfected with IRE1 and FMRP plasmids and stimulated with TG (600 nM) or TM (1 mg/ml) for 2 hours. Protein lysates were immunoprecipitated (IP) with anti-IRE1 or IgG (control) antibodies and analyzed by Western blotting using specific antibodies for FMRP and IRE1 (n=3). • 1C. RAW 264.7 mouse macrophages were treated with either oxLDL (50 μg/ml) or TG (300 nM) for 6 hours. Protein lysates were treated with λ Phosphatase (PPase) for 30 minutes and analyzed by western blotting using specific antibodies for pFMRP, FMRP, pIRE1, IRE1 and β-Actin. pFMRP/FMRP fold induction is depicted above the blots (n=6). • 1D. Apoe^−/− mice were fed with chow diet (CD) or western diet (WD) for 16 weeks followed by peritoneal macrophage (PM) isolation. Protein lysates were analyzed by western blotting using specific antibodies for pFMRP, FMRP, pIRE1, IRE1 and β-Actin. pFMRP/FMRP-fold induction is depicted above the blots (n=5). • 1E. Control- or IRE1-siRNA transfected HEK293T cells were stimulated by either PA (500 μM) or TG (600 nM) for 4 hours. Protein lysates were analyzed by western blotting using specific antibodies for pFMRP, FMRP, pIRE1, IRE1 and β-Actin. pFMRP/FMRP fold induction is depicted above the blots (n=4). • 1F. Protein lysates of thioglycolate-elicited PM from IRE1α^−/− and IRE1α^−/− mice (after 16 weeks on WD) were analyzed by western blotting using specific antibodies for pFMRP, FMRP, pIRE1, IRE1 and β-Actin. pFMRP/FMRP fold induction is depicted above the blots (n=4). • 1G. […] Protein lysates were analyzed by western blotting using specific antibodies for pFMRP, FMRP, pIRE1, IRE1 and β-Actin. pFMRP/FMRP fold induction is depicted above the blots (n=4). • 1H. […] Protein lysates of thioglycolate-elicited PM were analyzed by western blotting using antibodies for pFMRP, FMRP, pIRE1, IRE1 and β-Actin. pFMRP/FMRP fold induction is depicted above the blots (n=4). • 1I. […] The IP protein were analyzed by western blotting using specific antibodies for thiophosphate esters (ThioP), IRE1 and FMRP (n=3). • 1J. Purified FMRP and IRE1 kinase (activated) proteins were subjected to kinase assay and analyzed by western blotting using specific antibodies for ThioP, IRE1 and FMRP (n=3) and with LC-MS/MS. […] Protein lysates were analyzed by western blotting using specific antibodies for FMRP, pFMRP, pIRE1 and β-Actin. pFMRP/FMRP fold induction is depicted above the blots (n=3). […]

HEK293T cells = assay: ER stress-induced phosphorylation in control- or IRE1-siRNA transfected HEK293T cells (western blot); format: cell-based, human; conditions: PA 500 μM or TG 600 nM, 4 hours, control cells
Experimental: FIGS. 1A-1K depict FMRP is a new inositol-requiring enzyme-1 (IRE1) kinase substrate. A representative blot is shown from at least n=3 independent experiments. Data are mean±SEM. Unpaired 1-test with Welch's correction or paired 1-test. * P≤0.05, ** P≤0.01, *** P≤0.001. • 1A. STING analysis of published IRE1 interactome proteins in relation to FMRP (Acosta-Alvear et al., 2018). • 1B. HEK293T cells were co-transfected with IRE1 and FMRP plasmids and stimulated with TG (600 nM) or TM (1 mg/ml) for 2 hours. Protein lysates were immunoprecipitated (IP) with anti-IRE1 or IgG (control) antibodies and analyzed by Western blotting using specific antibodies for FMRP and IRE1 (n=3). • 1C. RAW 264.7 mouse macrophages were treated with either oxLDL (50 μg/ml) or TG (300 nM) for 6 hours. Protein lysates were treated with λ Phosphatase (PPase) for 30 minutes and analyzed by western blotting using specific antibodies for pFMRP, FMRP, pIRE1, IRE1 and β-Actin. pFMRP/FMRP fold induction is depicted above the blots (n=6). • 1D. […] Protein lysates were analyzed by western blotting using specific antibodies for pFMRP, FMRP, pIRE1, IRE1 and β-Actin. pFMRP/FMRP-fold induction is depicted above the blots (n=5). • 1E. […] Protein lysates were analyzed by western blotting using specific antibodies for pFMRP, FMRP, pIRE1, IRE1 and β-Actin. pFMRP/FMRP fold induction is depicted above the blots (n=4). • 1F. […]

| SMILES | lipid-induced inflammasome activation [1] | secretion of mature interleukin-1β (m-IL-1β) and m-IL-18 [1] | atherosclerotic plaque size (atherosclerotic plaque) | hyperlipidemia-induced m-IL-1β and m-IL-18 production (atherosclerotic plaque) | FMRP phosphorylation (S500) [2] | IRE1 autophosphorylation (S724) [2] | levels of FMRP protein [2] | levels of Fmr1 mRNA [2] | phosphorylation of FMRP (HEK293T cells) | phosphorylation of IRE1 (HEK293T cells) |
| --- | --- | --- | --- | --- | --- | --- | --- | --- | --- | --- |
| Cc1cc(=O)oc2c(C=O)c(O)ccc12 [4μ8C] | prevented | prevented | reducing | reducing | – | – | – | – | – | – |
| O=S(=O)(N=Cc1c(O)ccc2ccccc12)c1cccs1 [STF-083010] | prevented | prevented | reducing | reducing | – | – | – | – | – | – |
| C/C=C(/C)C(=O)O[C@H]1C(C)=C2[C@H]([C@@H]1OC(=O)CCCCCCC)[C@@](C)(OC(C)=O)C[C@H](OC(=O)CCC)[C@@]1(O)[C@H]2OC(=O)[C@@]1(C)O [TG, thapsigargin] | – | – | – | – | significantly induced | significantly induced | did not affect | did not affect | induced | induced |
